Laboratory results from publication PMC8079033, “Design, synthesis, anticancer evaluation, and molecular modelling studies of novel tolmetin derivatives as potential VEGFR-2 inhibitors and apoptosis inducers” (Journal of Enzyme Inhibition and Medicinal Chemistry, 2021).

Columns and labels:
caspase-3 = test: Caspase-3 (active) ELISA in HCT-15 cells; type: cell-based, human
Description: The level of the apoptotic marker caspase-3 was assessed using Human Caspase-3 (active) ELISA Kit Catalog # KHO1091. The procedure of the used kit was done according to the manufacturer’s instructions. Allow all reagents to reach room temperature before use. Gently mix all liquid reagents prior to use. Add 100 µl of the standard diluent buffer to the zero standard wells. Add 100 µl of standards and controls or diluted samples to the appropriate microtiter wells. Incubate for 2 h at room temperature. […] Incubate for 1 h at room temperature. Add 100 µl anti-rabbit IgG HRP working solution to each well. Prepare the working dilution and incubate for 30 min at room temperature. Add 100 µl of stabilised chromogen to each well. The liquid in the wells will begin to turn blue. Incubate for 30 min at room temperature and in the dark. Add 100 µl of stop solution to each well. The solution in the wells should change from blue to yellow. Read the absorbance of each well at 450 nm. Read the plate within 2 h after adding the stop solution. Use a curve fitting software to generate the standard curve. Read the concentrations for unknown samples and controls from the standard curve.
(§1) The activation of caspases as caspase-3, caspase-8, and caspase-9 is responsible for apoptosis, particularly caspase-3 which is an effector caspase that has an important role in apoptosis. It is activated by one of the initiator caspases which results in the activation of certain enzymes responsible for the fragmentation of DNA[53]. Caspase-8 and -9 are initiator caspases that are responsible for caspase-3 activation.

HUVECs = test: Wound healing assay (CytoSelect 24-well); type: cell-based, human; conditions: 72 h, 5b 2.4 µM, sunitinib 3.2 µM, control 97.03 ± 5.47
Description: Wound healing assay of compound 5b was evaluated using CytoSelect™ 24-Well Wound Healing Assay kit Catalog # CBA-120 according to manufacturer’s instructions. In brief, the 24-well plate wound healing inserts were allowed to warm up at room temperature for 10 minutes, then to each well, 500 µl of human umbilical vascular endothelial cells (HUVECs) suspension (1.0 × 10^6) in media containing 10% fetal bovine serum (FBS) was added. Cells were kept in a cell culture incubator until a monolayer form. Carefully the insert was removed from the well. The media were slowly aspirated and discarded from the wells. The wells were washed with media to remove dead cells and debris. Finally, the media were added to wells to keep cells hydrated, then wells were visualized under a light microscope. […] The percent closure of the cells into the wound field was measured.
One of the hallmarks of angiogenesis is cell migration, which happens in the earlier stages of the angiogenic cascade. A wound-healing assay was performed to investigate in vitro anti-angiogenic property of compound 5b.

HCT-15 cells [1] = test: Annexin V-FITC/PI apoptosis assay; type: cell-based, human
Description: Apoptosis was determined by staining the cells with Annexin V fluorescein isothiocyanate (FITC) and counterstaining with PI using the Annexin V-FITC/PI apoptosis detection kit (BD Biosciences, San Diego, CA) according to the manufacturer’s instructions. […] The cells then were collected by trypsinization and 0.5 × 10^6 cells were washed twice with PBS and stained with 5 µl Annexin V-FITC and 5 µl PI in 1 × binding buffer for 15 min at room temperature in the dark. Analyses were performed using FACS Calibur flow cytometer (BD Biosciences, San Jose, CA).
This clearly verifies that, cell death resulting from the antiproliferative action of the target tolmetin derivative 5b was attributable to physiological apoptosis.

caspase-9 = test: Caspase-9 ELISA in HCT-15 cells; type: cell-based, human
Description: (§2) To measure caspase-8 and caspase-9 levels, DRG® Caspase-8 (human) (EIA-4863) ELISA and DRG® Caspase-9 (human) (EIA-4860) ELISA kits were used. Briefly, prepare cell extracts after induction of apoptosis. Resuspend the extracts in lysis buffer, incubate 60 min at room temperature, and centrifuge for 15 min. Wash the microwell strips with 400 µl wash buffer. Add 100 µl of sample diluent in duplicate to all standard wells. Add 100 µl of sample diluent in duplicate to the blank wells. Add 50 µl of sample diluent to the sample wells. Add 50 µl of each sample in duplicate to the sample wells. Add 50 µl of detection antibody to all wells and incubate at room temperature for 2 h. Add 100 µl of diluted anti-rabbit-IgG-HRP to all wells, including the blank wells. Pipette 100 µl of (3,3′,5,5′-Tetramethylbenzidine) TMB substrate solution to all wells and incubate at room temperature for about 15 min. Stop the enzyme reaction by pipetting 100 µl of stop solution into each well. Read absorbance of each microwell on a spectro-photometer using 450 nm. Determine the absorbance of both the samples and the standards.
as §1

HCT-15 cells [2] = test: Cell cycle analysis by flow cytometry (PI); type: cell-based, human
Description: After treatment, the cells were washed twice with ice-cold phosphate buffer saline (PBS), collected by centrifugation, and fixed in ice-cold 70% (v/v) ethanol, washed with PBS, resuspended with 0.1 mg/ml RNase, stained with […] propidium iodide (PI), and analysed by flow cytometry using FACS Calibur (Becton Dickinson)[45]. The cell cycle distributions were calculated using Cell- Quest software (Becton Dickinson).
Anticancer agents exert their cytotoxic action by aborting cellular proliferation at certain checkpoints. These checkpoints are distinguishable phases in the cell cycle, whose suppression results in the termination of the cell proliferation. Cell cycle analysis employs flow cytometry to distinguish cells within the different cell cycle phases. […] Moreover, marked augmentation in the proportion of cells in the G0-G1 phase by 1.32-fold, and in the Sub-G1 phase by 18.7-fold, in comparison to the control (DMSO).

caspase-8 = test: Caspase-8 ELISA in HCT-15 cells; type: cell-based, human
Description: as §2, §1

VEGFR-2 (KDR) = biological target: T1, VEGFR-2 (KDR) (Homo sapiens, UniProt P35968); test: VEGFR-2 (KDR) Kinase Assay Kit (Kinase-Glo Max luminescence); type: biochemical; conditions: mean ± SD of three experiments
T1 construct: purchased 40325
T1 sequence (P35968 20-1356): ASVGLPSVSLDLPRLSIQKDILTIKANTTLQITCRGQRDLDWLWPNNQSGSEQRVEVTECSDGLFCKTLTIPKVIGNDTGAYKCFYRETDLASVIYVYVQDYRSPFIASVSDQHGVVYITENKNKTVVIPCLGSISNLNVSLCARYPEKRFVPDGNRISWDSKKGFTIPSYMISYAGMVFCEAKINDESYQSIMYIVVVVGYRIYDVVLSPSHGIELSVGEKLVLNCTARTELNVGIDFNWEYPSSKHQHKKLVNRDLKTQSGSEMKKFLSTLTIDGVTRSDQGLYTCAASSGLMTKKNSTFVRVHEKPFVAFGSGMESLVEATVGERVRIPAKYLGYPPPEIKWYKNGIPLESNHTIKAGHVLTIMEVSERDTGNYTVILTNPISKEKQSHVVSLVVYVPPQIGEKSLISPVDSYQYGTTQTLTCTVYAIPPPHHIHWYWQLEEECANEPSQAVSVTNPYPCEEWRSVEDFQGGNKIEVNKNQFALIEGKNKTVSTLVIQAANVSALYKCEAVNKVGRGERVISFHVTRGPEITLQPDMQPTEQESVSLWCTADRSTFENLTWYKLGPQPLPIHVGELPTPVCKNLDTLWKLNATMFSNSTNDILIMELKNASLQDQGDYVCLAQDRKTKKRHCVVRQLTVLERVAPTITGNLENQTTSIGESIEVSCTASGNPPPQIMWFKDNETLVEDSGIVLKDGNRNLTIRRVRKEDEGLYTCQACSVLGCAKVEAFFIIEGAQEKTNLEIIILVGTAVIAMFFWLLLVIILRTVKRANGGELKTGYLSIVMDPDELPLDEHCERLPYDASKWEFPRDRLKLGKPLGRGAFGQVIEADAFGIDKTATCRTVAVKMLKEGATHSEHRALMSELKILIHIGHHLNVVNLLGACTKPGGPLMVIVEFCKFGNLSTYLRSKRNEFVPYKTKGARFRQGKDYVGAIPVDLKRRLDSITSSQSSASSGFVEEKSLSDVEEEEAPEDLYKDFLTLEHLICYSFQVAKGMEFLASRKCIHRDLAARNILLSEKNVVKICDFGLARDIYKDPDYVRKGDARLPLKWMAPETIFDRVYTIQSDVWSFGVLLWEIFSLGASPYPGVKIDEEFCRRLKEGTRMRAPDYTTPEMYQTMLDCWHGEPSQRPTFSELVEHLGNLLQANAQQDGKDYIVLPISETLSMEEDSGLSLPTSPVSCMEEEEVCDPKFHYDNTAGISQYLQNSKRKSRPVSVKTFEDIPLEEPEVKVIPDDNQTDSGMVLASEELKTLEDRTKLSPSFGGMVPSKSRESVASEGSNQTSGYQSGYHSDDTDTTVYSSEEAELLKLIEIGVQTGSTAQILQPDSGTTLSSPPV
Description: In brief, the master mixture (25 µl per well) was prepared and added to each well. 5 µl of inhibitor solution of each well labelled as “Test Inhibitor” was added. For the “Positive Control” and “Blank,” 5 µl of the same solution without inhibitor (Inhibitor buffer) was added. 3 ml of kinase buffer was prepared by mixing 600 µl of kinase buffer with 2400 µl water. To the wells designated as “Blank,” 20 µl of kinase buffer was added. The amount of VEGFR-2 required for the assay was calculated and the enzyme was diluted to 1 ng/µl with kinase buffer. The reaction was initiated by adding 20 µl of diluted VEGFR-2 enzyme to the wells designated “Positive Control” and “Test Inhibitor Control.” The mixtures were incubated at 30 °C for 45 min. After the 45 min, 50 µl of Kinase-Glo Max reagent was added to each well. The plate was incubated at room temperature for 15 min. Luminescence was measured using the microplate reader.

Cc1ccc(C(=O)c2ccc(CC(=O)NN=Cc3cccc(O)c3O)n2C)cc1 [Compound 5b, N′-(2,3-Dihydroxybenzylidene)-2–(1-methyl-5–(4-methylbenzoyl)-1H-pyrrol-2-yl) acetohydrazide]
Caspase-3 (caspase-3; mean ± SD of three experiments, control 0.073 ± 0.01): 0.570 ± 0.01 ng/mL | increase in the level of caspase-3 (caspase-3; vs control): 7.808 fold | Wound closure percentage (HUVECs): 51.85 ± 2.92% | Apoptosis Late (HCT-15 cells [1]; IC50 concentration, 24 h, control 0.13): 22.12% | Apoptosis Early (HCT-15 cells [1]; IC50 concentration, 24 h, control 0.34): 2.66% | Apoptosis Total (HCT-15 cells [1]; IC50 concentration, 24 h, control 0.47): 24.78% | Necrosis (HCT-15 cells [1]; IC50 concentration, 24 h, control 0.99): 12.51% | increase in the total apoptosis percentage (HCT-15 cells [1]; vs control (DMSO)): 52.72 fold | Caspase-9 (caspase-9; mean ± SD of three experiments, control 3.225 ± 0.44): 24.58 ± 0.82 ng/mL | increase in the level of caspase-9 (caspase-9; vs control): 7.622 fold | augmentation in the proportion of cells in the G0-G1 phase (HCT-15 cells [2]; 6.62 µM, vs control (DMSO)): 1.32 fold | decline in the cell population at the G2/M phase (HCT-15 cells [2]; 6.62 µM, vs control (DMSO)): 65.61% | decline in the cell population at the S phase (HCT-15 cells [2]; 6.62 µM, vs control (DMSO)): 16.88% | %Pre-G1 (HCT-15 cells [2]; IC50 concentration (6.62 µM), 24 h, control 1.46): 37.29% | %G2/M (HCT-15 cells [2]; IC50 concentration (6.62 µM), 24 h, control 6.95): 2.39% | %G0–G1 (HCT-15 cells [2]; IC50 concentration (6.62 µM), 24 h, control 41.69): 54.92% | %S (HCT-15 cells [2]; IC50 concentration (6.62 µM), 24 h, control 51.36): 42.69% | Caspase-8 (caspase-8; mean ± SD of three experiments, control 0.377 ± 0.03): 0.704 ± 0.06 ng/mL | increase in the level of caspase-8 (caspase-8; vs control): 1.867 fold | IC50 (VEGFR-2 (KDR)): 200 ± 20 nM
